Results published in patent US20230219951A1, “PYRIDINE-PYRIMIDINE DERIVATIVE, PREPARATION METHOD THEREFOR AND PHARMACEUTICAL USE THEREOF” (Jiangsu Hengrui Pharmaceuticals Co., Ltd., priority 2020, published 2023).

What was measured:
[1] = tested on: ERK phosphorylation of H358 cells; test: Inhibition of ERK phosphorylation of H358 cells (HTRF pERK/total ERK); assay type: cell-based; details: Homo sapiens, NCI-H358, 1 h incubation, pERK/total ERK ratio
Experimental: This experiment is intended to evaluate the inhibition effect of the compounds of the present disclosure on the KRAS target (containing the G12C mutation) according to IC50 by determining the inhibition effect of the compounds on ERK phosphorylation of the cells.
H358 cells (ATCC, CRL-5807) were cultured in RPMI1640 (Hyclone, SH30809.01) complete medium containing 10% fetal bovine serum. On the first day of the experiment, the H358 cells were seeded into a 96-well plate at a density of 25,000 cells/well with a complete medium to form 190 μL of cell suspension per well. The plate was incubated overnight in a cell incubator at 37° C. with 5% CO2. The next day, 10 μL of test compound diluted in a gradient prepared with the complete medium was added to each well. The final concentrations of the compound were 9 concentration points obtained by 5-fold gradient dilution from 10 μM. A blank control containing 0.1% DMSO was set. The plate was incubated in a cell incubator at 37° C. with 5% CO2 for 1 h. 1 h later, the 96-well cell culture plate was taken out, the medium was removed by pipetting, 200 μL PBS (Shanghai BasalMedia Technologies Co., Ltd., B320) was added to each well, and the cells were washed once. PBS was removed by pipetting, 50 μL of lysis buffer (Cisbio, 64KL1FDF) containing a blocking reagent (Cisbio, 64KB1AAC) was added to each well, and the plate was shaken on a shaker at room temperature for 40 min for lysis. After lysis, the lysate was pipetted and mixed well, 16 μL of lysate was transferred from each well to each of two HTRF 96-well assay plates (Cisbio, 66PL96100), and then 4 μL of premixed phospho-ERK1/2 antibody solution (Cisbio, 64AERPEG) or 4 μL of premixed total-ERK1/2 antibody solution (Cisbio, 64NRKPEG) was added to each of the two plates. The microplate was sealed with a sealing membrane, centrifuged for 1 min in a microplate centrifuge, and incubated overnight at room temperature away from the light. On the third day, the fluorescence values at an excitation wavelength of 337 nm and at emission wavelengths of 665 nm and 620 nm were read using a PHERAstar multi-mode microplate reader (BMG Labtech, S/N 471-0361).
IC50 values for inhibitory activity of the compounds were calculated using Graphpad Prism software based on compound concentrations and pERK/total ERK ratio.

CYP2C19 = target: T1, CYP2C19 (Homo sapiens, UniProt P33261); test: Human liver microsome CYP450 inhibition, CYP2C19 (S)-mephenytoin 4'-hydroxylation; assay type: in vitro ADME; details: human liver microsomes, (S)-mephenytoin probe substrate
T1 construct: tissue Corning Gentest 452161; host or cells: human liver microsomes
T1 sequence (P33261 whole entry): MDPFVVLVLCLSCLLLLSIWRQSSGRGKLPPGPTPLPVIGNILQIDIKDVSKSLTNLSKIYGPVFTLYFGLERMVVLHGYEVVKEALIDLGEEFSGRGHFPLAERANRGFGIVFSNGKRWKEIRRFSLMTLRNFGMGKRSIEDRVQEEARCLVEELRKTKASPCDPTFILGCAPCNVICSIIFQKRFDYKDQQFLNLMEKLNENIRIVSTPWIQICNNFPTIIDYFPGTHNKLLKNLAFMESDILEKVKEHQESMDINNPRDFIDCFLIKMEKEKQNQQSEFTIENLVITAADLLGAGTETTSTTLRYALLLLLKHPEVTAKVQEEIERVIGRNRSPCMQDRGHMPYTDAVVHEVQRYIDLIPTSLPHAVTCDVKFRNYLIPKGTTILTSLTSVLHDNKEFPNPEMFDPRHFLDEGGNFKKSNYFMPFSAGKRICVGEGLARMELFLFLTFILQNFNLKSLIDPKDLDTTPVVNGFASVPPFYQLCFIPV
Experimental: The inhibition effect of the compounds of the present disclosure on the human liver microsome CYP450 enzyme was determined by the following method:
An appropriate amount of human liver microsome stock solution (20 mg/mL) was diluted to obtain a 0.25 mg/mL microsome solution with 7.5 mM MgC12 solution for later use (prepared right before use).
b. An appropriate amount of the stock solution was precisely pipetted, and diluted into series solution I at the concentrations of 10 mM, 3 mM, 1 mM, 0.3 mM, 0.03 mM and 0.003 mM with an appropriate amount of DMSO solution. An appropriate amount of the above series solution I was precisely pipetted, and diluted to obtain series solution II at the concentrations of 3 mM, 1 mM, 0.3 mM, 0.1 mM, 0.03 mM, 0.003 mM and 0.0003 mM with an appropriate amount of acetonitrile. An appropriate amount of the above series solution II was precisely pipetted, and diluted with PBS to obtain a working solution at the concentrations of 150 μM, 50 μM, 15 μM, 5μM, 1.5 μM, 0.15 μM and 0.015 μM for later use.
a. […]
The values were calculated by Graphpad Prism to obtain the IC50 values for the inhibition of drugs on CYP2C19 (S)-mephenytoin 4′-hydroxylation and CYP3A4M midazolam 1-hydroxylation metabolism in human liver microsomes, as shown in Table 6.

[2] = Pharmacokinetic evaluation in mice; assay type: in vivo; details: female, mouse, plasma, po, C57 mice, intragastric administration, 2 mg/kg
Experimental: The drug concentration in the plasma of the test animals (mice) at different time points after intragastric administration (i.g.) of compound 18-p1 was determined by using an LC/MS/MS method. The pharmacokinetic behavior of the compound of the present disclosure in mice was studied and its pharmacokinetic profile was evaluated.
Nine C57 mice, female, purchased from Beijing Vital River Laboratory Animal Technology Co., Ltd., with animal production license number of SOCK (Shanghai) 2017-0005.
An amount of compound 18-p1 was weighed, dissolved with 5% by volume of DMSO and 5% tween 80 (Shanghai Titan Scientific Co., Ltd.), and then prepared into a 0.1 mg/mL clear solution with 90% normal saline.
Intragastric administration: the mice were intragastrically administered at a dose of 2.0 mg/kg and a volume of 20.0 mL/kg.
The compound 18-p1 was administered intragastrically to mice, and 0.1 mL of blood was collected from the orbit before administration and 0.25 h, 0.5 h, 1.0 h, 2.0 h, 4.0 h, 6.0 h, 8.0 h, 11.0 h and 24.0 h after administration. The blood was placed in an EDTA-K2 anticoagulation tube and centrifuged at 10,000 rpm for 1 min (4° C.), and plasma was separated out within 1 h and then stored at −20° C. for testing. The process from blood sampling to centrifugation was performed under an ice bath.
The content of the test compounds at different concentrations in plasma of mice after administration was determined: 10 μL of plasma of mice at each time point after administration was taken, and 200 μL of methanol (containing an internal standard solution camptothecin, 100 ng/mL) was added; the mixture was vortexed for 1 min, and centrifuged for 10 min (18,000 r/min). 3 μL of supernatant was taken from the plasma sample for LC/MS/MS analysis.

IC50 (CYP2C19): > 30 µM
Vd/F ([2]; read-out: Apparent distribution volume Vz/F): 23.4 L/kg
AUC(0-t) ([2]; read-out: Area under curve AUC0-t): 146 ng·h/mL
CL/F ([2]; read-out: Clearance CLz/F): 225 mL/min/kg
half-life ([2]; read-out: Half-life T½ (converted)): 1.2 h
Cmax ([2]; read-out: Plasma concentration Cmax): 56.7 ng/mL
SMILES: Cc1nc(N[C@H](C)c2cccc(C(F)F)c2F)c2cc([C@]3(O)CC[C@@H](O)CC3)c(=O)[nH]c2n1 [Example 18-p1, 4-(((R)-1-(3-(difluoromethyl)-2-fluorophenyl)ethyl)amino)-6-((1s,4S)-1,4-dihydroxycyclohexyl)-2-methylpyrido[2,3-d]pyrimidin-7(8H)-one]
IC50 [1]: 51 nM
